# Source: ChEMBL document CHEMBL1201862, “PubChem BioAssay data set” (2004)
# Several values for one entry are separate records, joined by “and”; a condition that tells them apart may be missing. Identical values can stand only once. Activity calls are given as the source filed them.
# What was measured:
# HEK293 [1] = experiment: HEK cell cytotoxicity by LDH release, dose response, cytotoxicity control for IDE activator project, fluorescence, HEK cells (AID 588440); assay type: functional, cell-based; details: Homo sapiens;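 further: cytotoxicity by LDH release measuring loss of membrane integrity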
# HEK293 [2] = experiment: optical interference in Abeta FP readout, dose response, artefact control for IDE activator project, biochemical, fluorescence polarization (AID 588442); assay type: functional, cell-based; details: Homo sapiens
# Insulin-degrading enzyme [3] = target: T1, Insulin-degrading enzyme (Homo sapiens, UniProt P14735); experiment: activators of recombinant IDE enzyme, dose response, counter-screen for IDE activator project, biochemical, fluorescence polarization (AID 588681)
# T1 sequence (P14735 whole entry): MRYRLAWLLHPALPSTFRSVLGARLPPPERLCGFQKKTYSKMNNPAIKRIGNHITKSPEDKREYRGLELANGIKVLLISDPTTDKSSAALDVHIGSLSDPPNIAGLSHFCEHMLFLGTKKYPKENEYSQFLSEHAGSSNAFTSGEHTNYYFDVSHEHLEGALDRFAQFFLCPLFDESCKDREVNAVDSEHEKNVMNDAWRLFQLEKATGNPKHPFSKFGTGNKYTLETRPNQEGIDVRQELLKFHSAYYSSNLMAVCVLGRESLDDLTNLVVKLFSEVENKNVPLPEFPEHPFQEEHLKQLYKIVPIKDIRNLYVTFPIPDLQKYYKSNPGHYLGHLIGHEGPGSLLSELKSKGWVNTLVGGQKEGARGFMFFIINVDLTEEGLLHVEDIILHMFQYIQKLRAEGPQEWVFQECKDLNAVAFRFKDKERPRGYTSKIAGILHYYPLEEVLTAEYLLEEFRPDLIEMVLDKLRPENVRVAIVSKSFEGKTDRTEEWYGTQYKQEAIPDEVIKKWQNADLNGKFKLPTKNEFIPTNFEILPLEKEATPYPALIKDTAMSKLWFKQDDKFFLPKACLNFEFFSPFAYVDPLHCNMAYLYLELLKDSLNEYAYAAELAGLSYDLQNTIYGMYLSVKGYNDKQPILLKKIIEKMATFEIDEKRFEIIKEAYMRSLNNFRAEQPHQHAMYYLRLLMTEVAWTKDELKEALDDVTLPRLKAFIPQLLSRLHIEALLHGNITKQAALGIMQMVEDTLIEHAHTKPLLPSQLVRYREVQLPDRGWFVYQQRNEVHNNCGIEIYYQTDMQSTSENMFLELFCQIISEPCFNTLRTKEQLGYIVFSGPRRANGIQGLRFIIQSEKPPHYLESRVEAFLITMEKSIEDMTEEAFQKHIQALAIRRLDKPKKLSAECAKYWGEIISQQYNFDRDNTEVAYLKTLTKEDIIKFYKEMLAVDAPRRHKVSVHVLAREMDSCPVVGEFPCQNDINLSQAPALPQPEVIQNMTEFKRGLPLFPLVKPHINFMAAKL
# Insulin-degrading enzyme [4] = target: T1, Insulin-degrading enzyme; experiment: activators of endogenous IDE in HEK cells, dose response, cell-based, fluorescence polarization (AID 588439); assay type: functional
# Activin receptor type-1 = Activin receptor type-1 (Homo sapiens, UniProt Q04771); experiment: Navigating the Kinome. Panel member name: ACVR1; assay type: functional
# [5] = target: T2, Apoptotic protease-activating factor 1 (Homo sapiens, UniProt O14727); experiment: SAR analysis of small molecule Activators of Apaf-1 in a Fluorescent assay.; assay type: functional; details: read-out: EC50_Mean;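 further: caspase-3 cleavage of fluorogenic Rh110 DEVD substrate downstream of apoptosome activation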
# T2 sequence (O14727 whole entry): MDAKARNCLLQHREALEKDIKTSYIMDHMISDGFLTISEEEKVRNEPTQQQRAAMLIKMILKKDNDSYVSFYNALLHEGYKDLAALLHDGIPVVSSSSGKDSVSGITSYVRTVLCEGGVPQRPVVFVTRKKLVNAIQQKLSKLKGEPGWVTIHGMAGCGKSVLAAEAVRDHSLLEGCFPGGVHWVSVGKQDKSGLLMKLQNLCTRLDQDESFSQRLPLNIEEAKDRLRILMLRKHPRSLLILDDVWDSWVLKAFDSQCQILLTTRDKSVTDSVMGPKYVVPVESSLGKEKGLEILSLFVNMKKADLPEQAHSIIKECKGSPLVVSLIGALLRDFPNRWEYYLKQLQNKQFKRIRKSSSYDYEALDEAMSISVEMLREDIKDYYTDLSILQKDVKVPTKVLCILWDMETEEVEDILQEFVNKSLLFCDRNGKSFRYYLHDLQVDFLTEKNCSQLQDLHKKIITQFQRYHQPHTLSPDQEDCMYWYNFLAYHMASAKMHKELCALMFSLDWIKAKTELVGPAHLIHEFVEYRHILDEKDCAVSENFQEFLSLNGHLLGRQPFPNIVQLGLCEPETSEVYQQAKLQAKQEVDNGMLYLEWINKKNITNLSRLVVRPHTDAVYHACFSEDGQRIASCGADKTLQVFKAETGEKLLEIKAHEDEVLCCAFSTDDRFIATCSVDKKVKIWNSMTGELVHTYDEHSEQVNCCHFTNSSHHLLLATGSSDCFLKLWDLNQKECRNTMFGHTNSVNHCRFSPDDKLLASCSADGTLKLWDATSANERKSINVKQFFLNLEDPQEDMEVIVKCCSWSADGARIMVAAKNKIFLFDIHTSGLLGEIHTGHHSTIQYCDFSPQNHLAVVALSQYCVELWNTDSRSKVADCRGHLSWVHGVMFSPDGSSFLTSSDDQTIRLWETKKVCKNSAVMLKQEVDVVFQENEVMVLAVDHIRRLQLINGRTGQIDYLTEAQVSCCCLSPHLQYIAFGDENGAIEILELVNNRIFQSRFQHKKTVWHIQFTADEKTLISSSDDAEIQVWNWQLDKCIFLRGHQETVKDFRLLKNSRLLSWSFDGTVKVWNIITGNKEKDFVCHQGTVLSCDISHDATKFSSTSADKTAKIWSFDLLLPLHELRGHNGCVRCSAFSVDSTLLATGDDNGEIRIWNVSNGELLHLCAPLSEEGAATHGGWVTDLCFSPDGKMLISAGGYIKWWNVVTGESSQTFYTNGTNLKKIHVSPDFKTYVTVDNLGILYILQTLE
# [6] = target: Potassium voltage-gated channel subfamily KQT member 2 (Rattus norvegicus, UniProt O88943); experiment: KCNQ2 potassium channel inhibitors, dose response, cell-based, automated electrophysiology, set II, rat KCNQ2 (AID 588637); assay type: functional
# [7] = target: T3, Voltage-gated N-type calcium channel alpha-1B subunit/Amyloid beta A4 precursor protein-binding family A member 1 (Homo sapiens, UniProt Q00975+Q02410); experiment: disruptors of Mint-PDZ/N-type channel peptide interaction – biochemical, HTRF, set 2, SAR follow-up (AID 434980); assay type: functional
# [8] = target: T4, Carboxy-terminal domain RNA polymerase II polypeptide A small phosphatase 1 (Homo sapiens, UniProt Q9GZU7); experiment: inhibitors of CTDSP1, concentration-response testing, biochemical assay, absorbance-based, actives from ultra-high-throughput screening (AID 540297); assay type: functional
# T4 sequence (Q9GZU7 whole entry): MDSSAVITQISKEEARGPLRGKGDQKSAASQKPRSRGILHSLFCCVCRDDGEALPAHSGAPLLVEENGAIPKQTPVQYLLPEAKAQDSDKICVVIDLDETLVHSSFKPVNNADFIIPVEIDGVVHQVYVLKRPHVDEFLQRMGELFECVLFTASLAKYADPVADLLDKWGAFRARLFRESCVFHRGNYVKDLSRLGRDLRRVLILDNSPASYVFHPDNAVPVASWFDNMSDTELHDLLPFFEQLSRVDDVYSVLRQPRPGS
# [9] = target: T3, Voltage-gated N-type calcium channel alpha-1B subunit/Amyloid beta A4 precursor protein-binding family A member 1; experiment: disruptors of Mint-PDZ/N-type channel peptide interaction – biochemical, HTRF, SAR follow-up (AID 2489); assay type: functional
# SUMO E1/E2 = SUMO E1/E2 (Homo sapiens, UniProt P63279+Q9UBE0+Q9UBT2); experiment: SAR analysis of SUMOylation using HTRF in an in-Vitro dose response assay. [Related pubchem assays (depositor defined):AID2006, AID2011, AID2018, AID2069, AID2658]; assay type: functional
# Estrogen receptor beta [10] = target: T5, Estrogen receptor beta (Homo sapiens, UniProt Q92731); experiment: ERβ–SRC-3 coactivator interaction inhibitors, confirmation, orthogonal assay, biochemical, ELISA, streptavidin-HRP readout (AID 1060)
# Estrogen receptor beta [11] = target: T5, Estrogen receptor beta
# [12] = target: Low molecular weight phosphotyrosine protein phosphatase (Homo sapiens, UniProt P24666); assay type: functional; details: read-out: IC50_Mean;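 further: Dose-response confirmation assay measuring inhibition of LMPTP enzyme activity by fluorescence intensity read-out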
# Estrogen receptor = target: T6, Estrogen receptor (Homo sapiens, UniProt P03372);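 further: potency for inhibiting coactivator peptide recruitment to the receptor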
# T6 sequence (P03372 whole entry): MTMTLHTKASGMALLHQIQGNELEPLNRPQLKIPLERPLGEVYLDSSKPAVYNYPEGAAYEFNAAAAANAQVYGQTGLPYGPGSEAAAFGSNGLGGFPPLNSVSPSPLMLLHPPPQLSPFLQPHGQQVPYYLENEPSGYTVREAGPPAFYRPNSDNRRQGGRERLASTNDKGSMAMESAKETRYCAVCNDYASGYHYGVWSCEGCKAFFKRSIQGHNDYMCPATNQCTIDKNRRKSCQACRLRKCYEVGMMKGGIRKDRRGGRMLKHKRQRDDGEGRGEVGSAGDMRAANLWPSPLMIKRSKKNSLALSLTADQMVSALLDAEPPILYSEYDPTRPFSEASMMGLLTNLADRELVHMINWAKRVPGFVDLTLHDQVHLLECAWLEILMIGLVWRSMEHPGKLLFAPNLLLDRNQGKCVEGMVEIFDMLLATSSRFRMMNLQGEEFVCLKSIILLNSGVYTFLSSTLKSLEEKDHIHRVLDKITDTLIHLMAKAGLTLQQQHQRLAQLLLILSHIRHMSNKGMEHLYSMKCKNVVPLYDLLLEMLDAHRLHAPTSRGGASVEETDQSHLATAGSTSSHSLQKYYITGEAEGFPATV
# [13] = target: T7, Histone-lysine N-methyltransferase NSD2 (Homo sapiens, UniProt O96028); assay type: biochemical
# T7 sequence (O96028 whole entry): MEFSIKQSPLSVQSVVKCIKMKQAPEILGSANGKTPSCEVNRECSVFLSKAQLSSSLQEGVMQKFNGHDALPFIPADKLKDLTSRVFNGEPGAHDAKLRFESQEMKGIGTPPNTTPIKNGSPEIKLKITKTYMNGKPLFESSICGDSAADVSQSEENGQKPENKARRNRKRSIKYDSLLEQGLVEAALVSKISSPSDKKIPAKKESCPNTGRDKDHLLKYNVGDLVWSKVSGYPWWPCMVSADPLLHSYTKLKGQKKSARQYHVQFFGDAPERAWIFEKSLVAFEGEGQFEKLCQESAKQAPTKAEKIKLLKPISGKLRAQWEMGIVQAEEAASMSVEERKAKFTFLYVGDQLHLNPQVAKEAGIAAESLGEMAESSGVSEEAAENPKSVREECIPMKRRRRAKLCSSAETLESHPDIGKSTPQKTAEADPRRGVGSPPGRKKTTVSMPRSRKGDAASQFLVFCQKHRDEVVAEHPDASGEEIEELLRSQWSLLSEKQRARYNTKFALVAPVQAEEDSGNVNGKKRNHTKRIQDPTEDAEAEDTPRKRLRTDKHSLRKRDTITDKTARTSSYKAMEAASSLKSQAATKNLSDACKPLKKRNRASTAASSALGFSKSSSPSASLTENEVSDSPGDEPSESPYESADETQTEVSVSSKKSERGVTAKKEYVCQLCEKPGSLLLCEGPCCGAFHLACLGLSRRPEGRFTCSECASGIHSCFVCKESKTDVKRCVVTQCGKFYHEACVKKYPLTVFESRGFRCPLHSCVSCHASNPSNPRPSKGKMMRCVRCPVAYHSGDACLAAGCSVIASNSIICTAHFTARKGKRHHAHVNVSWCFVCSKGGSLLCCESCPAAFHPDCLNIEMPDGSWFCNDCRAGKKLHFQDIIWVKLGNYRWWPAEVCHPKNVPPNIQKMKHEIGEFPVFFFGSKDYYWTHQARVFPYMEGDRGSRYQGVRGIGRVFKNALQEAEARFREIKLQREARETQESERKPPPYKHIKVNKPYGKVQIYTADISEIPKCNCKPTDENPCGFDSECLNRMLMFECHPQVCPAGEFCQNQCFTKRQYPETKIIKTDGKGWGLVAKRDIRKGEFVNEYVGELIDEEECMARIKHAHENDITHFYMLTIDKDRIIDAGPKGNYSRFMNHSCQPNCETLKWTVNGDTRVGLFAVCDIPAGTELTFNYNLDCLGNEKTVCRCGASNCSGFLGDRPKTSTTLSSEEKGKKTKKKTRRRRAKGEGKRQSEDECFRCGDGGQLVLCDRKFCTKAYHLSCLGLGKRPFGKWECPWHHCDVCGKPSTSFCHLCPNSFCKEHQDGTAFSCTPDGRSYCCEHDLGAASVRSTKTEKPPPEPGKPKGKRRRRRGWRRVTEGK
# Vero [14] = experiment: cells; assay type: functional; details: Chlorocebus sabaeus
# Vero [15] = experiment: cells; assay type: functional, cell-based; details: Chlorocebus sabaeus
# [16] = HEp-2 cell cytotoxicity, dose response, cytotoxicity control for RSV inhibitor project, HTS (AID 2410); assay type: functional; details: human respiratory syncytial virus
# T3 sequence (Q00975 whole entry, the tested form may be a part): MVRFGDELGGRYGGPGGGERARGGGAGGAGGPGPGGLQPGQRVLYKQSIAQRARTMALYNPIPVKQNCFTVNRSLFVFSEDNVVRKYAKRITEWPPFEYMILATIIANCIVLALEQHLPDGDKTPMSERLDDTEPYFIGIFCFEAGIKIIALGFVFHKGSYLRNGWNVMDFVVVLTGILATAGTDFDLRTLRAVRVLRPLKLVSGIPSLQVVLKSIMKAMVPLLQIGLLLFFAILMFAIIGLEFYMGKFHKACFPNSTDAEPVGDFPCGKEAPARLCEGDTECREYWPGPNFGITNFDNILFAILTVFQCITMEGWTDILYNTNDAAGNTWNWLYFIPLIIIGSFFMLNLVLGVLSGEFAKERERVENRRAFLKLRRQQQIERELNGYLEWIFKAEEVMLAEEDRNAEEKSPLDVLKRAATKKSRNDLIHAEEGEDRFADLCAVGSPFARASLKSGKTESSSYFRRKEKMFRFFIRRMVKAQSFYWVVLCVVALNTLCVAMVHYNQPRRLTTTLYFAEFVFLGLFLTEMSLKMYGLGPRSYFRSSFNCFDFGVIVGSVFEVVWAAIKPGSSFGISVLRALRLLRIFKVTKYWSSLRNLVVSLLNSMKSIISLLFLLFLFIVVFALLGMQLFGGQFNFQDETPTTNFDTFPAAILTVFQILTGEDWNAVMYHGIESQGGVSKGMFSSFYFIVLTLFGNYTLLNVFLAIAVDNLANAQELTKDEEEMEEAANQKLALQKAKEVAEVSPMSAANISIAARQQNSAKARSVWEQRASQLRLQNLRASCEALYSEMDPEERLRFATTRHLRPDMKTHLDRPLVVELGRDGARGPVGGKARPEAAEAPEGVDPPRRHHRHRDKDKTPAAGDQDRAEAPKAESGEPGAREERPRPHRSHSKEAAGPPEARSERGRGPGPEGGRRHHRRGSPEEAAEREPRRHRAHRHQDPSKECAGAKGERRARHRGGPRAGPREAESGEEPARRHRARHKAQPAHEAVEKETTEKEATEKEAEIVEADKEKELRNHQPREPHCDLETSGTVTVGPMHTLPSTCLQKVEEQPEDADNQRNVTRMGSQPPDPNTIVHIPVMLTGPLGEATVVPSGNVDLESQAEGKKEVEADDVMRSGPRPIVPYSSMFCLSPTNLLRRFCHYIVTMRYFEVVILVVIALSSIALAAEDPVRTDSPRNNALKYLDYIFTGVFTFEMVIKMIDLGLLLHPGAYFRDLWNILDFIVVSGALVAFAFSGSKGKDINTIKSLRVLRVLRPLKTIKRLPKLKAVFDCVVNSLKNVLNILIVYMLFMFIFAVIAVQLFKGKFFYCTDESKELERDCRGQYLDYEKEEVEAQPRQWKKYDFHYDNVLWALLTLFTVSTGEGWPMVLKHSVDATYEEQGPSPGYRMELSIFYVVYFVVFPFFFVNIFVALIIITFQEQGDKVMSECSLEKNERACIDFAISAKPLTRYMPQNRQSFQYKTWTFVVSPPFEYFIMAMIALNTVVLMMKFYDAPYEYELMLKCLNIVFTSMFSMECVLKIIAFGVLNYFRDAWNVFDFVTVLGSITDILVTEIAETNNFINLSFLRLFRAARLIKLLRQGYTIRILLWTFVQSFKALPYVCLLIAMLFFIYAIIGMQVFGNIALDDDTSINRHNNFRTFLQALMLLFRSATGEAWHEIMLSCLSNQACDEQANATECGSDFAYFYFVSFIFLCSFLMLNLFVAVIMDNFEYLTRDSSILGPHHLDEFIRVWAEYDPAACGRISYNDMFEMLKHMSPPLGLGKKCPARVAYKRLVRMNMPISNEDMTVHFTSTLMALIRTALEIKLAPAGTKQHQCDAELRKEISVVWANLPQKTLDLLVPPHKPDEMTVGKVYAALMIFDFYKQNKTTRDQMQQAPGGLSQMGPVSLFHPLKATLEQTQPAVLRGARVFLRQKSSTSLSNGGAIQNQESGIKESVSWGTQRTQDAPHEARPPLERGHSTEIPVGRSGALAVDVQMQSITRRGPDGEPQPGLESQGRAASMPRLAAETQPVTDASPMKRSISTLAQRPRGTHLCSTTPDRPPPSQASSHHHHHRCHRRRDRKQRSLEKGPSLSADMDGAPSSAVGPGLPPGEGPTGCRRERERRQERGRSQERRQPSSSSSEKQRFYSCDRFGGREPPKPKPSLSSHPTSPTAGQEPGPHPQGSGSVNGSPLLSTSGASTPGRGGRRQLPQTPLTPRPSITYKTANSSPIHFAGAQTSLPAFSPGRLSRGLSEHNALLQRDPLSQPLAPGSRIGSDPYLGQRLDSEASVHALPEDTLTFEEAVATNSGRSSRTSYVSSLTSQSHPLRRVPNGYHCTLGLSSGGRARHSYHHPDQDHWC
# T3 sequence (Q02410 whole entry, the tested form may be a part): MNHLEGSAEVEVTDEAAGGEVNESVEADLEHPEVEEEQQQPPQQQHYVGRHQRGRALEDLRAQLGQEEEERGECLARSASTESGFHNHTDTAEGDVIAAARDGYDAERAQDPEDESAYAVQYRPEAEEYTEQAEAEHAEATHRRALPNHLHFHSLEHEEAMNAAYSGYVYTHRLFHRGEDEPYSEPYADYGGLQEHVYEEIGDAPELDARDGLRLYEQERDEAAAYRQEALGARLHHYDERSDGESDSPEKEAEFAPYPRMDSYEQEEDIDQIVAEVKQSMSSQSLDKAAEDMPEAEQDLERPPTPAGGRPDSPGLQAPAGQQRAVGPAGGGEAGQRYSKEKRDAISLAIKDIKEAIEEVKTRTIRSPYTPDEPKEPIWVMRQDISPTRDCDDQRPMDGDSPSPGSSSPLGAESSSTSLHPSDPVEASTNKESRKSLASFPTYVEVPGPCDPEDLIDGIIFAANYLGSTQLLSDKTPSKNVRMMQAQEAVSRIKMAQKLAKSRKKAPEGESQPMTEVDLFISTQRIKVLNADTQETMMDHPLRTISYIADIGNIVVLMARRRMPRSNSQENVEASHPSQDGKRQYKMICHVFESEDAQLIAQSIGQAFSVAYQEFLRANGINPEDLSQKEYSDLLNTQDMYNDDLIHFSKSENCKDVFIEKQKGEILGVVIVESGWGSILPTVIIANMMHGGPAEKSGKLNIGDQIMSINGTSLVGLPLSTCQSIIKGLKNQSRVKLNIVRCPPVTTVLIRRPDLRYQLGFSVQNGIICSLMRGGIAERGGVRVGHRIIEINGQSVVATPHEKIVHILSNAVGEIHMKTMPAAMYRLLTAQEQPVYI
# T5 sequence (Q92731 whole entry): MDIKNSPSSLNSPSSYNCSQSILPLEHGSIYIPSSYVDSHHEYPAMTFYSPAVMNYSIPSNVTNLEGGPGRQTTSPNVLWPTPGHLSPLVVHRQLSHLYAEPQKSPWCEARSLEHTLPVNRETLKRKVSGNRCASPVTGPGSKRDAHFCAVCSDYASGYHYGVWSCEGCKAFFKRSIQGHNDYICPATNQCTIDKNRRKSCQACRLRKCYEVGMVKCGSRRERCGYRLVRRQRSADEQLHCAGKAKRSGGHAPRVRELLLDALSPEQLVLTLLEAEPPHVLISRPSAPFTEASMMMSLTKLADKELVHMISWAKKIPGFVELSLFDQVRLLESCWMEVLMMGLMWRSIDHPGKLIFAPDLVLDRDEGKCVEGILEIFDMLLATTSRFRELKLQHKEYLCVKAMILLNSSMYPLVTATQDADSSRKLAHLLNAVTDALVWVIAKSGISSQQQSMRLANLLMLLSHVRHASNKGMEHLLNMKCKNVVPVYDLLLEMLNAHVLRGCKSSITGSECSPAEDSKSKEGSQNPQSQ
# Sequence of Activin receptor type-1 (Q04771 whole entry): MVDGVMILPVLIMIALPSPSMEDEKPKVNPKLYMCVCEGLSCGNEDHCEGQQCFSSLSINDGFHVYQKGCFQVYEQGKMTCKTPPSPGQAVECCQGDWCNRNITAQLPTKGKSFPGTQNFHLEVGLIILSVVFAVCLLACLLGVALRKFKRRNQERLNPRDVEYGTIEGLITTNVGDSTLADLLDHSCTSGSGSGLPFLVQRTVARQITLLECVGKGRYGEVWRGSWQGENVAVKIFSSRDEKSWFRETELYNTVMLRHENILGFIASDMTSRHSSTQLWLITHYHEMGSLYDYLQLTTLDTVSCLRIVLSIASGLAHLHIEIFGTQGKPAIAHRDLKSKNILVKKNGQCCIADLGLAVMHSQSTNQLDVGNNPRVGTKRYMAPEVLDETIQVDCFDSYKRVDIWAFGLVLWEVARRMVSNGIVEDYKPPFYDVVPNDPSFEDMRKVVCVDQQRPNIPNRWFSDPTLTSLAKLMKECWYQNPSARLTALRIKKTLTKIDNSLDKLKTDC
# Sequence of Low molecular weight phosphotyrosine protein phosphatase (P24666 whole entry): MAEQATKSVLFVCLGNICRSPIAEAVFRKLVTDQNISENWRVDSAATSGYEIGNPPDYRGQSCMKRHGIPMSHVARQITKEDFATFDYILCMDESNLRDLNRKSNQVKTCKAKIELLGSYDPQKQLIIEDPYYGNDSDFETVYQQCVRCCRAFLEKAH
compound,measurement,setting,value
CCc1nnc(NS(=O)(=O)c2ccc(N/C=C3/C(=O)NC(=O)N(c4ccc(Cl)cc4)C3=O)cc2)s1,IC50,HEK293 [1],> 89.2 µM (inactive)
same,EC50,HEK293 [2],> 54.7 µM (inactive)
same,EC50,Insulin-degrading enzyme [3],> 54.7 µM (inactive)
same,EC50,Insulin-degrading enzyme [4],> 54.7 µM (inactive)
O=C1Cc2c([nH]c3ccc([N+](=O)[O-])cc23)-c2ccccc2N1 [ALSTERPAULLONE],Ki,Activin receptor type-1,0.0631 µM (active)
CC(Cc1ccc2c(c1)OCO2)C(=O)O (centres undefined),EC50,[5],> 100 µM (inactive)
COc1ccc(CCNC(=O)c2cc(-c3ccco3)nc3ccccc23)cc1,IC50,[6],4.08 µM (active)
same,IC50,[7],12.8 µM (active) and > 56.8 µM (inactive)
same,IC50,[8],4.22 µM (active)
same,IC50,[9],17.3 µM (active) and > 56.8 µM (inactive)
same,IC50,SUMO E1/E2,16.5 µM (active)
CCN(c1ccccc1)S(=O)(=O)c1cc(C(=O)O)ccc1C,IC50,Estrogen receptor beta [10],1.83 µM (not active)
same,IC50,Estrogen receptor beta [11],6.12 µM (active)
same,IC50,[12],21 µM (inactive)
same,IC50,Estrogen receptor,13.1 µM (active)
same,AC50,[13],9.26 µM (active)
O=C(O)c1ccccc1Nc1ccc([N+](=O)[O-])cc1,CC50,Vero [14],> 25 µM (active)
same,IC50,HEK293 [1],> 89.1 µM (inactive)
same,IC50,cells,2.4 µM (active)
same,EC50,HEK293 [2],6.88 µM (active)
same,IC50,Vero [15],8.6 µM (active)
same,EC50,Insulin-degrading enzyme [3],14 µM (inactive)
same,CC50,[16],8.65 µM (active)
same,EC50,Insulin-degrading enzyme [4],7.99 µM (active)
